Results on six molecules are retold here after ChEMBL document CHEMBL1132407, “Combinatorial library of serine and cysteine protease inhibitors that interact with both the S and S' binding sites” (J Med Chem, 1999).

One assay addresses T1, Papain (Carica papaya, UniProt P00784).
T1 sequence (P00784 whole entry): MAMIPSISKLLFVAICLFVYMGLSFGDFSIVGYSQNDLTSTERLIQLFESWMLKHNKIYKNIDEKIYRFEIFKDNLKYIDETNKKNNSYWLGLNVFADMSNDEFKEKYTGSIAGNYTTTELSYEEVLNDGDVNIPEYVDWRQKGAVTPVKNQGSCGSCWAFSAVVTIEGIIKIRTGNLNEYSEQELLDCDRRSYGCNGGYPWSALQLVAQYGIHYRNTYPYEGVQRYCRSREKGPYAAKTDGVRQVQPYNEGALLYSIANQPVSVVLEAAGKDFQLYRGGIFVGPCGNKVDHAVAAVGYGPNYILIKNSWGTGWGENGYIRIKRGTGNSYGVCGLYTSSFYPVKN
As to the kind of experiment: Inhibitory activity against papain.

A further assay has as its target Plasminogen (Homo sapiens, UniProt P00747). In words: Inhibitory activity against plasmin.
The next assay addresses Cathepsin B (Homo sapiens, UniProt P07858). As to the kind of experiment: Inhibitory activity against Cathepsin B.

Chain of Plasminogen (P00747 97-580 limits assumed): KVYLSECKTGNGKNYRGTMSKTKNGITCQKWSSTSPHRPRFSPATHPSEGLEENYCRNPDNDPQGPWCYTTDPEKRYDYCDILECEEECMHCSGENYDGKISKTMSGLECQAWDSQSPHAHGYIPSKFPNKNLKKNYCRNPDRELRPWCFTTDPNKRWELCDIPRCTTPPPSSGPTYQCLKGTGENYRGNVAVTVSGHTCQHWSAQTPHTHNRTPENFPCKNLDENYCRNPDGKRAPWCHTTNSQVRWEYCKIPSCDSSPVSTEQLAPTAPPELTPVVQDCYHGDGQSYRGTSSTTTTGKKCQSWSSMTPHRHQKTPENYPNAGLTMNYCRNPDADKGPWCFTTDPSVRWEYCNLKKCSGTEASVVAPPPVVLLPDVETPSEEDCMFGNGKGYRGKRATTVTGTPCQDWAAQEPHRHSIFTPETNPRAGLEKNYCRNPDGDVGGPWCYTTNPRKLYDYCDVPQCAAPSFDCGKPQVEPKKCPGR
Chain of Plasminogen (P00747 581-810 limits assumed): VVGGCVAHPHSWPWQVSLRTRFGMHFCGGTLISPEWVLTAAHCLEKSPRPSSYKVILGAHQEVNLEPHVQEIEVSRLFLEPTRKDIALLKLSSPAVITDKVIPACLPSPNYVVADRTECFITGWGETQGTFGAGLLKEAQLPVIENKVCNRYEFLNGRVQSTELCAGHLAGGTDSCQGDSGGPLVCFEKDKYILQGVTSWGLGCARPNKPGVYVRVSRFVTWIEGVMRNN

Take `O=C(CC[C@H]1CCC[C@@H](NC(=O)[C@H](Cc2ccccc2)NC(=O)OCc2ccccc2)C1=O)N[C@@H](Cc1c[nH]c2ccccc12)C(=O)O`: the inhibition constant (Ki) at Papain was found to be 490 µM; on Plasminogen it was 420 µM.
With `O=C(CC[C@H]1CCC[C@@H](NC(=O)[C@H](Cc2ccccc2)NC(=O)OCc2ccccc2)C1=O)N[C@@H](Cc1ccccc1)C(=O)O`, the Ki came to 870 µM at Papain, 3000 µM at Plasminogen and 1100 µM at Cathepsin B.
With `O=C(CC[C@H]1CCC[C@@H](NC(=O)[C@H](Cc2c[nH]c3ccccc23)NC(=O)OCc2ccccc2)C1=O)N[C@@H](Cc1c[nH]c2ccccc12)C(=O)O` (stereo in doubt), the Ki on Plasminogen was 10 µM.
As for `O=C(CC[C@H]1CCC[C@@H](NC(=O)[C@H](Cc2c[nH]c3ccccc23)NC(=O)OCc2ccccc2)C1=O)N[C@@H](Cc1c[nH]c2ccccc12)C(=O)O` (stereo in doubt; 15A), the Ki was found to be 380 µM at Papain and 5 µM on Plasminogen.
As for `O=C(CC[C@H]1CCC[C@@H](NC(=O)[C@H](Cc2c[nH]c3ccccc23)NC(=O)OCc2ccccc2)C1=O)N[C@@H](Cc1ccccc1)C(=O)O` (stereo in doubt; 16A), the Ki came out at 250 µM on Papain and 100 µM at Plasminogen.
On Plasminogen, `O=C(CC[C@H]1CCC[C@@H](NC(=O)[C@H](Cc2c[nH]c3ccccc23)NC(=O)OCc2ccccc2)C1=O)N[C@@H](Cc1ccccc1)C(=O)O` (stereo in doubt; 16B) gave a Ki of 150 µM.

By Ki is commonly meant the equilibrium dissociation constant of an inhibitor or competing ligand from its target. Read a low Ki as higher affinity.
